This is an account of results in US20180099931A1 (AbbVie S.à.r.l., priority 2016, published 2018).

Read-outs that look alike come from different tables or passages of the source.

In this experiment the target is T1, F508delCFTR (Homo sapiens, UniProt P13569, DEL508-508).
T1 construct: expressed in transfected cells; host or cells: CFBE41o- human lung-derived epithelial cells (CFBE4lo-F508delCFTR-HRP), doxycycline-inducible
Description: Cell Surface Expression-Horse Radish Peroxidase (CSE-HRP) Assay.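 For Maximum % activity (with co-corrector): co-corrector and positive control are both the same reference corrector at 2 µM.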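 For Maximum % activity (without co-corrector): percent of the 2 µM on-plate positive control corrector response above DMSO.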 The format is cell-based. The conditions noted are these: for Maximum % activity (with co-corrector): with co-corrector (2 μM); for Maximum % activity (with co-corrector) / Emax: maximum at any tested concentration, normalized to on-plate positive control; for Emax: without co-corrector, read-out: Maximum % activity (without co-corrector).

Where [1] appears, read: test compound without co-corrector, read-out: EC50 (without co-corrector).
Setting [2] is: with co-corrector (2 μM of 3-[(2R,4R)-4-({[1-(2,2-difluoro-1,3-benzodioxol-5-yl)cyclopropyl]carbonyl}amino)-7-methoxy-3,4-dihydro-2H-chromen-2-yl]benzoic acid), read-out: EC50 (with co-corrector).

T1 sequence (P13569 with tags, fused parts or gaps DEL508-508): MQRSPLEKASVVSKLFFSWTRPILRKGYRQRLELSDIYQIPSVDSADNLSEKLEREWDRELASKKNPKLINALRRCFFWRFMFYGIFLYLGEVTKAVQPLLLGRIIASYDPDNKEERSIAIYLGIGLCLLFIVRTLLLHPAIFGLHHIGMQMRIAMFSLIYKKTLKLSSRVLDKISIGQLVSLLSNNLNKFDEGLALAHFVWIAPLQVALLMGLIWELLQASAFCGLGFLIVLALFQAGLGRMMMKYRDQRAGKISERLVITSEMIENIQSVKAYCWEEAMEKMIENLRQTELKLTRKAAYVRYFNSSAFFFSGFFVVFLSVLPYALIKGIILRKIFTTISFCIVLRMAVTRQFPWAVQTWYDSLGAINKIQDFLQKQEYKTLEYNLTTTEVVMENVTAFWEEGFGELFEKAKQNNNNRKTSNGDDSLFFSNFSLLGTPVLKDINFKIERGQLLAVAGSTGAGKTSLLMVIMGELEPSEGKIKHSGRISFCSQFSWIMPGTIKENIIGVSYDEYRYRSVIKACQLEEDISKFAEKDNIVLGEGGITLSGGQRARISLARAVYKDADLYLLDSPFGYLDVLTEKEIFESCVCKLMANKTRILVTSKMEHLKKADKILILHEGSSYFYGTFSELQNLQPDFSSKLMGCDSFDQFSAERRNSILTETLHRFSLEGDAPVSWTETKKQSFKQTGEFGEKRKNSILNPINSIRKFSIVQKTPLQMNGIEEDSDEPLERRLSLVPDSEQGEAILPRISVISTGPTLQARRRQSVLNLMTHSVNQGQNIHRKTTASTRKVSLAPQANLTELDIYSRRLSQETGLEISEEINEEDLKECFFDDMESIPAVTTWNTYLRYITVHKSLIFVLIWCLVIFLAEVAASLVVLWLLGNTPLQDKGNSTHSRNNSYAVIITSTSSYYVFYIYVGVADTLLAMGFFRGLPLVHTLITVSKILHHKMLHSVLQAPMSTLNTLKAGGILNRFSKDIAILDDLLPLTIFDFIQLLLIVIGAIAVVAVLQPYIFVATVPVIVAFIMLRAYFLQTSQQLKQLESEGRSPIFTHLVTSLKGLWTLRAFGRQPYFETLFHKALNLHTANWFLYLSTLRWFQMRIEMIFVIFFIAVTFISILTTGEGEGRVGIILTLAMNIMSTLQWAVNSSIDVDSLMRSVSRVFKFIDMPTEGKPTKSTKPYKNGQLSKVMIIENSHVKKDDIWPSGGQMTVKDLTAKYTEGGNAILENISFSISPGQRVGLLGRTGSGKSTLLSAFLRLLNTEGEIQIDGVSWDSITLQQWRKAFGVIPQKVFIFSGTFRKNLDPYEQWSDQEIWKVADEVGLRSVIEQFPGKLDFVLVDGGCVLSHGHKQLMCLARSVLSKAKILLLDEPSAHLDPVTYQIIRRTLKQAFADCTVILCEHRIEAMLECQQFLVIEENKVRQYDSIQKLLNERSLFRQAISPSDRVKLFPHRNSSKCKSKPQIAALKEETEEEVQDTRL

For `COc1ccc(C(C)(C)C)cc1CN[C@H]1[C@H](C(C)(C)C)[C@@H](C(=O)O)N(C(=O)[C@@H]2CCCCO2)[C@H]1c1ccccc1OC(F)F` [Example 59, (2S,3S,4S,5S)-3-tert-butyl-4-{[(5-tert-butyl-2-methoxyphenyl)methyl]amino}-5-[2-(difluoromethoxy)phenyl]-1-[(2S)-oxane-2-carbonyl]pyrrolidine-2-carboxylic acid], the “Maximum % activity (with co-corrector)” value is “+++ (≥350)” and the Emax was greater than 200%. Under setting [1], the concentration for a half-maximal effect (EC50) (as a rule, the concentration that produces a half-maximal response) was in the range of 1000 to 10000 nM. For the same compound, the concentration giving a half-maximal response (EC50) under setting [2] is less than 1000 nM.

For the compound `COc1ccc(C2(C)CCC2)cc1CN[C@H]1[C@H](C(C)(C)C)[C@@H](C(=O)O)N(C(=O)[C@@H]2CCCCO2)[C@H]1c1cccnc1N(C)C` [Example 60, (2S,3S,4S,5S)-3-tert-butyl-5-[2-(dimethylamino)pyridin-3-yl]-4-({[2-methoxy-5-(1-methylcyclobutyl)phenyl]methyl}amino)-1-[(2S)-oxane-2-carbonyl]pyrrolidine-2-carboxylic acid], the “Maximum % activity (with co-corrector)” value is reported as “+++ (≥350)” and the Emax is greater than 200%. For the same compound, the EC50 under setting [1] was in the range of 1000 to 10000 nM. Also, the EC50 under setting [2] lay within 1000 to 10000 nM.

Take `COc1ccc(C(C)(C)C)cc1CN[C@H]1[C@H](C(C)(C)C)[C@@H](C(=O)O)N(C(=O)OC(C)C)[C@H]1c1ccccc1C(C)C` [Example 61, (2S,3S,4S,5S)-3-tert-butyl-4-{[(5-tert-butyl-2-methoxyphenyl)methyl]amino}-1-{[(propan-2-yl)oxy]carbonyl}-5-[2-(propan-2-yl)phenyl]pyrrolidine-2-carboxylic acid]: the “Maximum % activity (with co-corrector)” value is “+++ (≥350)” and the Emax is greater than 200%. Besides, the EC50 under setting [1] is less than 1000 nM. For the same compound, under setting [2], the EC50 is less than 1000 nM.

Turning to `CC(C)(C)[C@H]1[C@H](NCC2(c3cccc(Cl)c3)CCOCC2)[C@H](c2ccccc2)N(C(=O)C2CCCCC2)[C@@H]1C(=O)O` [Example 63, (2S,3S,4S,5S)-3-tert-butyl-4-({[4-(3-chlorophenyl)oxan-4-yl]methyl}amino)-1-(cyclohexanecarbonyl)-5-phenylpyrrolidine-2-carboxylic acid], the “Maximum % activity (with co-corrector)” value was “+++ (≥350)” and the Emax was less than 100%. The EC50 under setting [1] was in the range of 1000 to 10000 nM. Also, under setting [2], the EC50 was in the range of 1000 to 10000 nM.

As for `COc1ccc(C23CC(C2)C3)cc1CN[C@H]1[C@H](C(C)(C)C)[C@@H](C(=O)O)N(C(=O)OC(C)C)[C@H]1c1cccnc1N(C)C` [Example 64, (2S,3S,4S,5S)-4-({[5-(bicyclo[1.1.1]pentan-1-yl)-2-methoxyphenyl]methyl}amino)-3-tert-butyl-5-[2-(dimethylamino)pyridin-3-yl]-1-{[(propan-2-yl)oxy]carbonyl}pyrrolidine-2-carboxylic acid], the “Maximum % activity (with co-corrector)” value was “+++ (≥350)” and the Emax was greater than 200%. Also, under setting [1], the EC50 lay in the range of 1000 to 10000 nM. Besides, under setting [2], the EC50 fell in the range of 1000 to 10000 nM.

In the case of `COc1cc(C(F)(F)F)ccc1CN[C@H]1[C@H](C(C)(C)C)[C@@H](C(=O)O)N(C(=O)C2C3CCCC32)[C@H]1c1ccccc1` (stereo partly drawn) [Example 65, (2S,3S,4S,5S)-1-(bicyclo[3.1.0]hexane-6-carbonyl)-3-tert-butyl-4-({[2-methoxy-4-(trifluoromethyl)phenyl]methyl}amino)-5-phenylpyrrolidine-2-carboxylic acid], the “Maximum % activity (with co-corrector)” value is given as “+++ (≥350)” and the Emax is 100 to 200%. The EC50 under setting [1] lay within 1000 to 10000 nM. The EC50 under setting [2] fell in the range of 1000 to 10000 nM.

Take `COc1ccc(C(C)(C)C)cc1CN[C@H]1[C@H](C(C)(C)C)[C@@H](C(=O)O)N(C(=O)OC(C)C)[C@H]1c1cccnc1N(C)C` [Example 66, (2S,3S,4S,5S)-3-tert-butyl-4-{[(5-tert-butyl-2-methoxyphenyl)methyl]amino}-5-[2-(dimethylamino)pyridin-3-yl]-1-{[(propan-2-yl)oxy]carbonyl}pyrrolidine-2-carboxylic acid]: the “Maximum % activity (with co-corrector)” value is on record as “+++ (≥350)” and the Emax was in the range of 100 to 200%. Further, the 50% effective concentration (EC50) under setting [1] lay in the range of 1000 to 10000 nM. Further, under setting [2], the EC50 lay within 1000 to 10000 nM.
